From ChEMBL document CHEMBL1137891, “5-Carboxamido-1,3,2-dioxaphosphorinanes, potent inhibitors of MTP” (Bioorg Med Chem Lett, 2004)

Species on record: Mesocricetus auratus
Experiment: Percentage change in serum HDL cholesterol in male hamster after 3-day treatment at 30 mpk
Details: not given

SMILES | Activity
CCCCOP(=O)(CCCCC1(C(=O)NCC(F)(F)F)c2ccccc2-c2ccccc21)OCCCC | -5%
O=C(NC1COP(=O)(CCCCC2(C(=O)NCC(F)(F)F)c3ccccc3-c3ccccc32)OC1)c1ccccc1-c1ccc(C(F)(F)F)cc1 (stereo in doubt; 3a) | -73%
O=C(NC1COP(=O)(CCCCC2(C(=O)NCC(F)(F)F)c3ccccc3-c3ccccc32)OC1)c1ccccc1-c1nc2ccccc2o1 (trans isomer) | -13%
O=C(NC1CCN(CCCCC2(C(=O)NCC(F)(F)F)c3ccccc3-c3ccccc32)CC1)c1ccccc1-c1ccc(C(F)(F)F)cc1 [LOMITAPIDE] | -92%

Test system: Cricetinae gen. sp.
Experiment: Percentage change in serum HDL cholesterol in male hamster after 3-day treatment at 15 mpk
Assay type: functional
Details: not given

SMILES | Activity
O=C(NC1COP(=O)(CCCCC2(C(=O)NCC(F)(F)F)c3ccccc3-c3ccccc32)OC1)c1ccccc1N1CCOCC1 (stereo not drawn) | -3%
O=C(NC1COP(=O)(CCCCC2(C(=O)NCC(F)(F)F)c3ccccc3-c3ccccc32)OC1)c1ccccc1-c1ccccn1 (trans isomer) | -19%
O=C(NC1COP(=O)(CCCCC2(C(=O)NCC(F)(F)F)c3ccccc3-c3ccccc32)OC1)c1ccccc1 (trans isomer) | -12%
O=C(N[C@H]1CC[N@+]([O-])(CCCCC2(C(=O)NCC(F)(F)F)c3ccccc3-c3ccccc32)CC1)c1ccccc1-c1ccc(C(F)(F)F)cc1 | -77%
O=C(NC1COP(=O)(CCCCC2(C(=O)NCC(F)(F)F)c3ccccc3-c3ccccc32)OC1)c1ccccc1-c1nc2ccccc2s1 (stereo not drawn) | -76%

Test system: Cricetinae gen. sp.
Experiment: Concentration required for change in serum HDL cholesterol in male hamster after 3-day treatment
Assay type: functional, Cricetulus griseus
Details: 72 h

SMILES | ED50
O=C(NC1COP(=O)(CCCCC2(C(=O)NCC(F)(F)F)c3ccccc3-c3ccccc32)OC1)c1ccccc1-c1ccc(C(F)(F)F)cc1 (stereo in doubt; 3a) | 3.3 mg/kg
O=C(NC1CCN(CCCCC2(C(=O)NCC(F)(F)F)c3ccccc3-c3ccccc32)CC1)c1ccccc1-c1ccc(C(F)(F)F)cc1 [LOMITAPIDE] | 2 mg/kg
O=C(NC1COP(=O)(CCCCC2(C(=O)NCC(F)(F)F)c3ccccc3-c3ccccc32)OC1)c1ccccc1-c1nc2ccccc2s1 (stereo not drawn) | 4 mg/kg

Test system: Cricetinae gen. sp.
Experiment: Percentage change in serum HDL cholesterol in male hamster after 3-day treatment at 20 mpk
Assay type: functional, Cricetulus griseus
Details: not given

SMILES | Activity
O=C(NC1COP(=O)(CCCCC2(C(=O)NCC(F)(F)F)c3ccccc3-c3ccccc32)OC1)c1ccccc1-c1ccc(C(F)(F)F)cc1 (cis isomer) | -4%

Target: T1, Microsomal triglyceride transfer protein large subunit (Homo sapiens, UniProt P55157)
T1 sequence (P55157 whole entry): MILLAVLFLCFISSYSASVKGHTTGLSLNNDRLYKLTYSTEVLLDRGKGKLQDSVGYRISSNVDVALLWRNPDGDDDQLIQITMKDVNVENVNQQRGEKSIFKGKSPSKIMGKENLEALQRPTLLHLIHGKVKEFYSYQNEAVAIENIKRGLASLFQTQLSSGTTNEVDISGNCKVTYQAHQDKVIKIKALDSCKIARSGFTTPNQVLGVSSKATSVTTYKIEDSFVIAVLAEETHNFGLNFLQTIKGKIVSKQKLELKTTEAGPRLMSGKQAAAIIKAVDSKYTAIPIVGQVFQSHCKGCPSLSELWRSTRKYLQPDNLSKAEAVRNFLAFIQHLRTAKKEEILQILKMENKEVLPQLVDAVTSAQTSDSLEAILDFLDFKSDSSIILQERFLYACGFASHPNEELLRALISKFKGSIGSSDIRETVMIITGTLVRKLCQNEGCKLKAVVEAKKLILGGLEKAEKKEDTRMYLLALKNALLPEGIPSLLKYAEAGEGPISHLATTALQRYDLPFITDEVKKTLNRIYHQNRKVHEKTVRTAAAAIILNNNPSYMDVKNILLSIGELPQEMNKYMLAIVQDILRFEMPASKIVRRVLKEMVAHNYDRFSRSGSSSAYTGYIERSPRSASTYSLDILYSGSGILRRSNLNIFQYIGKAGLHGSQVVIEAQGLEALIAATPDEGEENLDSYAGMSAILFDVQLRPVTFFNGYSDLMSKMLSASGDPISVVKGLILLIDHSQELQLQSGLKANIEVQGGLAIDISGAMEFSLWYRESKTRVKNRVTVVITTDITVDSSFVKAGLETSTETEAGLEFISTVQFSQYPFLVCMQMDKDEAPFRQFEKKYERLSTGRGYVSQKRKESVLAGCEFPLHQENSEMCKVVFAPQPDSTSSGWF
Experiment: In vitro inhibitory concentration against human Microsomal triglyceride transfer protein
Assay type: functional
Details: not given

SMILES | IC50
O=C(NC1COP(=O)(CCCCC2(C(=O)NCC(F)(F)F)c3ccccc3-c3ccccc32)OC1)c1ccccc1N1CCOCC1 (stereo not drawn) | 12 nM
CCCCOP(=O)(CCCCC1(C(=O)NCC(F)(F)F)c2ccccc2-c2ccccc21)OCCCC | 22 nM
O=C(NC1COP(=O)(CCCCC2(C(=O)NCC(F)(F)F)c3ccccc3-c3ccccc32)OC1)c1ccccc1-c1ccccn1 (trans isomer) | < 10 nM
O=C(NC1COP(=O)(CCCCC2(C(=O)NCC(F)(F)F)c3ccccc3-c3ccccc32)OC1)c1ccccc1 (trans isomer) | 11 nM
O=C(NC1COP(=O)(CCCCC2(C(=O)NCC(F)(F)F)c3ccccc3-c3ccccc32)OC1)c1ccccc1-c1ccc(C(F)(F)F)cc1 (stereo in doubt; 3a) | 7 nM
O=C(NC1COP(=O)(CCCCC2(C(=O)NCC(F)(F)F)c3ccccc3-c3ccccc32)OC1)OCc1ccccc1 (stereo not drawn) | 14 nM
O=C(N[C@H]1CC[N@+]([O-])(CCCCC2(C(=O)NCC(F)(F)F)c3ccccc3-c3ccccc32)CC1)c1ccccc1-c1ccc(C(F)(F)F)cc1 | 5 nM
O=C(NC1COP(=O)(CCCCC2(C(=O)NCC(F)(F)F)c3ccccc3-c3ccccc32)OC1)c1ccccc1-c1nc2ccccc2o1 (trans isomer) | 3 nM
O=C(NC1COP(=O)(CCCCC2(C(=O)NCC(F)(F)F)c3ccccc3-c3ccccc32)OC1)c1ccccc1-c1ccc(C(F)(F)F)cc1 (cis isomer) | 44 nM
O=C(NC1COP(=O)(CCCCC2(C(=O)NCC(F)(F)F)c3ccccc3-c3ccccc32)OC1)c1ccccc1-c1nc2ccccc2s1 (stereo not drawn) | 9 nM

Target: T1, Microsomal triglyceride transfer protein large subunit
Experiment: In vitro inhibition concentration required against triglyceride transfer of human Microsomal triglyceride transfer protein
Assay type: functional
Details: read-out: I50

SMILES | IC50
O=C(NC1COP(=O)(CCCCC2(C(=O)NCC(F)(F)F)c3ccccc3-c3ccccc32)OC1)OCc1ccccc1 (cis isomer) | 210 nM

Test system: HepG2
Experiment: inhibitory activity against secretion of lipoproteins apoB and apoA1 from human HepG2 cell lines
Assay type: functional
Details: Homo sapiens, HepG2; read-out: ED50 (the source's name)

SMILES | EC50
CCCCOP(=O)(CCCCC1(C(=O)NCC(F)(F)F)c2ccccc2-c2ccccc21)OCCCC | 7 nM
O=C(NC1COP(=O)(CCCCC2(C(=O)NCC(F)(F)F)c3ccccc3-c3ccccc32)OC1)c1ccccc1-c1ccccn1 (trans isomer) | 79 nM
O=C(NC1COP(=O)(CCCCC2(C(=O)NCC(F)(F)F)c3ccccc3-c3ccccc32)OC1)c1ccccc1 (trans isomer) | 23 nM
O=C(NC1COP(=O)(CCCCC2(C(=O)NCC(F)(F)F)c3ccccc3-c3ccccc32)OC1)OCc1ccccc1 (stereo not drawn) | 40 nM
O=C(N[C@H]1CC[N@+]([O-])(CCCCC2(C(=O)NCC(F)(F)F)c3ccccc3-c3ccccc32)CC1)c1ccccc1-c1ccc(C(F)(F)F)cc1 | 0.9 nM
O=C(NC1CCN(CCCCC2(C(=O)NCC(F)(F)F)c3ccccc3-c3ccccc32)CC1)c1ccccc1-c1ccc(C(F)(F)F)cc1 [LOMITAPIDE] | 0.8 nM
O=C(NC1COP(=O)(CCCCC2(C(=O)NCC(F)(F)F)c3ccccc3-c3ccccc32)OC1)c1ccccc1-c1nc2ccccc2s1 (stereo not drawn) | 7.5 nM

Same assay, conditions: read-out: ED50 (the source's name)

SMILES | EC50
O=C(NC1COP(=O)(CCCCC2(C(=O)NCC(F)(F)F)c3ccccc3-c3ccccc32)OC1)c1ccccc1-c1ccc(C(F)(F)F)cc1 (stereo in doubt; 3a) | 0.65 nM
O=C(NC1COP(=O)(CCCCC2(C(=O)NCC(F)(F)F)c3ccccc3-c3ccccc32)OC1)c1ccccc1-c1ccc(C(F)(F)F)cc1 (cis isomer) | 18 nM
